Test results as given in US7691844B2, “Nonpeptide substituted spirobenzoazepines as vasopressin antagonists” (Ortho-McNeil Pharmaceutical, Inc., priority 2000, dated 2010).
Blank lines part the entries; values can stand above or below the molecule they belong to.

Assays:
V1a = V1a (Homo sapiens, UniProt P37288); assay: In-vitro receptor binding assay (3H-arginine-8-vasopressin), V1a
Description: (§1) (A) In-Vitro Binding Assay […] The reaction plates are allowed to sit at room temperature for one hour. The samples are filtered through Unifilter GF/C plates (presoaked in 0.3 polyethyleneimine). The plates are washed 5 times with cold physiological saline containing 0.05% Tween 20. After drying, the bottom of the filter plates are sealed and 0.025 ml of Microscint-20 is added to each filter. The top of the plate is sealed, and the plate is counted. Non-specific binding is determined by the addition of 1.25 μM […]-vasopressin in those wells. % Inh. is calculated as follows: […]

human V2 receptor = human V2 receptor (Homo sapiens, UniProt P30518); assay: In-vitro receptor binding assay (3H-arginine-8-vasopressin), V2; settings: for inhibition at 10 µM / inhibition at 1 µM: read-out: Receptor Binding V2 (% Inh. @ concentration in μM)
Description: as §1

[1] = read-out: Receptor Binding V1a (% Inh. @ concentration in μM)

Chain of V1a (P37288 whole entry): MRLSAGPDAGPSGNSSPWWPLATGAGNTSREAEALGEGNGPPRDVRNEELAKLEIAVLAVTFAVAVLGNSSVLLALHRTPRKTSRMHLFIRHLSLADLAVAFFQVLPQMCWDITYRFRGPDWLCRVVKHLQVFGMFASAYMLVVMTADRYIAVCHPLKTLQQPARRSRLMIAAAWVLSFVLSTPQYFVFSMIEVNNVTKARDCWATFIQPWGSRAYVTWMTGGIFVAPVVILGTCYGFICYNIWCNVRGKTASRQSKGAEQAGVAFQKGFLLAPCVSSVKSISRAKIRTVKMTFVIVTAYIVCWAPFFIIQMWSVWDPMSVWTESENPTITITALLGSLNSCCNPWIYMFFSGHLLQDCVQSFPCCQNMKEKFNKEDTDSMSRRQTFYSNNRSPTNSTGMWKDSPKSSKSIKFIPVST
Chain of human V2 receptor (P30518 whole entry): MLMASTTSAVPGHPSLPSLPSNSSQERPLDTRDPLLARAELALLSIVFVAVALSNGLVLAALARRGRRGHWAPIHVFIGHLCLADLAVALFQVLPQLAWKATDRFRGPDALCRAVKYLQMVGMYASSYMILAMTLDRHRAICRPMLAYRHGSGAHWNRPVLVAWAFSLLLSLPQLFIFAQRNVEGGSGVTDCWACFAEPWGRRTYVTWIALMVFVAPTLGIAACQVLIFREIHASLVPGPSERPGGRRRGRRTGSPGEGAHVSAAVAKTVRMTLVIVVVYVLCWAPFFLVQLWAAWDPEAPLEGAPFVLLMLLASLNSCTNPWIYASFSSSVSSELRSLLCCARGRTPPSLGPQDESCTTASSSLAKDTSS

Receptor Binding V1a (% Inh. @ concentration in μM) (V1a; @ 10 μM): 20% @ 10
Receptor Binding V2 (% Inh. @ concentration in μM) (human V2 receptor; @ 10 μM): 26% @ 10
SMILES: O=C(c1cc(C(F)(F)F)cc(C(F)(F)F)c1)N1CCC2(C=CCCC2)Cc2ccccc21 (centres unmarked) [Compound 50]

IC50 (V1a): 5.6 µM
inhibition at 10 µM (human V2 receptor; @ 10 μM): 33%
SMILES: O=C(c1cccc(Br)c1)N1CCC2(C=CCCC2)Cc2ccccc21 (centres unmarked) [Compound 51]

IC50 (V1a): 0.53 µM
Receptor Binding V2 (% Inh. @ concentration in μM) (human V2 receptor; @ 10 μM): 28% @ 10
SMILES: N#Cc1cccc(C(=O)N2CCC3(C=CCCC3)Cc3ccccc32)c1 (centres unmarked) [Compound 52]

Receptor Binding V1a (% Inh. @ concentration in μM) (V1a; @ 10 μM): 0% @ 10
Receptor Binding V2 (% Inh. @ concentration in μM) (human V2 receptor; @ 10 μM): 29% @ 10
SMILES: O=C(NCc1ccc(C(=O)N2CCC3(C=CCCC3)Cc3ccccc32)cc1)c1ccccc1 (centres unmarked) [Compound 55]

IC50 (V1a): 4.3 µM
inhibition at 10 µM (human V2 receptor; @ 10 μM): 0%
SMILES: O=C(c1cccc(C(F)(F)F)c1)N1CCC2(C=CCCC2)Cc2ccccc21 (centres unmarked) [Compound 56]

IC50 (V1a): 0.34 µM
inhibition at 1 µM (human V2 receptor; @ 1 μM): 4%
SMILES: CC(=O)Nc1ccc(C(=O)N2CCC3(C=CCCC3)Cc3ccccc32)cc1 (centres unmarked) [Compound 57]

IC50 (V1a): 0.051 µM
Receptor Binding V2 (% Inh. @ concentration in μM) (human V2 receptor; @ 1 μM): 14% @ 1
SMILES: CN(C)c1ccc(C(=O)N2CCC3(C=CCCC3)Cc3ccccc32)cc1 (centres unmarked) [Compound 60]

Receptor Binding V1a (% Inh. @ concentration in μM) (V1a; @ 1 μM): 11% @ 1
Receptor Binding V2 (% Inh. @ concentration in μM) (human V2 receptor; @ 1 μM): 3% @ 1
SMILES: O=C(Nc1ccccc1)N1CCC2(C=CCCC2)Cc2ccccc21 (centres unmarked) [Compound 61]

Receptor Binding V1a (% Inh. @ concentration in μM) (V1a; @ 1 μM): 5% @ 1
Receptor Binding V2 (% Inh. @ concentration in μM) (human V2 receptor; @ 1 μM): 4% @ 1
SMILES: O=C(Nc1ccc(F)cc1)N1CCC2(C=CCCC2)Cc2ccccc21 (centres unmarked) [Compound 62]

Receptor Binding V1a (% Inh. @ concentration in μM) (V1a; @ 1 μM): 1% @ 1
Receptor Binding V2 (% Inh. @ concentration in μM) (human V2 receptor; @ 1 μM): 12% @ 1
SMILES: O=C(c1ccccc1-c1ccccc1)N1CCC2(C=CCCC2)Cc2ccccc21 (centres unmarked) [Compound 64]

inhibition at 1 µM (V1a; @ 1 μM, read-out: Receptor Binding V1a (% Inh. @ concentration in μM)): 8%
inhibition at 1 µM (human V2 receptor; @ 1 μM): 11%
SMILES: O=C(O)c1ccc(C(=O)N2CCC3(C=CCCC3)Cc3ccccc32)cc1 (centres unmarked) [Compound 65, 4-(4-Carboxybenzoyl)-4-aza-[6,5]-spiro-[5,6]-benzododec-2′-ene]

IC50 (V1a): 0.02 µM
IC50 (human V2 receptor): 0.39 µM
SMILES: O=C(Nc1ccc(C(=O)N2CCC3(C=CCCC3)Cc3ccccc32)cc1)c1ccccc1 (centres unmarked) [Compound 67]

IC50 (V1a): 0.81 µM
inhibition at 1 µM (human V2 receptor; @ 1 μM): 3%
SMILES: Nc1ccc(C(=O)N2CCC3(C=CCCC3)Cc3ccccc32)cc1 (centres unmarked) [Compound 68]

IC50 (V1a): 0.01 µM
Receptor Binding V2 (% Inh. @ concentration in μM) (human V2 receptor; @ 1 μM): 21% @ 1
SMILES: Nc1ccc(C(=O)Nc2ccc(C(=O)N3CCC4(C=CCCC4)Cc4ccccc43)cc2)cc1 (centres unmarked) [Compound 70]

Receptor Binding V2 (% Inh. @ concentration in μM) (human V2 receptor; @ 1 μM): 2% @ 1
SMILES: COc1ccc(C(=O)Nc2ccc(C(=O)N3CCC4(C=CCCC4)Cc4ccccc43)cc2)cc1OC (centres unmarked) [Compound 97]

inhibition at 0.1 µM (V1a; [1]): 0%
SMILES: COc1cc(-n2ccc(C(=O)O)c2)ccc1C(=O)N1CCC2(C=C(C(=O)NCCN(C)C)CC2)Cc2ccccc21 (centres unmarked) [Compound 200]

inhibition at 0.1 µM (V1a; [1]): 3%
SMILES: COC(=O)C1=CC2(CC1)CCN(C(=O)c1cc(OC)c(OC)c(OC)c1)c1ccccc1C2 (centres unmarked) [Compound 203]

inhibition at 0.1 µM (V1a; [1]): 0%
SMILES: CCOC(=O)Oc1c(OC)cc(C(=O)N2CCC3(C=C(C(=O)OC)CC3)Cc3ccccc32)cc1OC (centres unmarked) [Compound 204]

IC50 (V1a): 0.14 µM
SMILES: CCCCOc1ccc(C(=O)N2CCC3(C=C(C(=O)OC)CC3)Cc3ccccc32)cc1 (centres unmarked) [Compound 205]

inhibition at 0.1 µM (V1a; [1]): 9%
SMILES: CCOC(=O)Oc1c(OC)cc(C(=O)N2CCC3(C=CCCC3)Cc3ccccc32)cc1OC (centres unmarked) [Compound 206, 4-(4-Ethoxycarboyloxy-3,5-dimethoxybenzoyl)-4-aza-[6,5]-spiro-[5,6]-benzododec-2′-ene]

inhibition at 0.1 µM (V1a; [1]): 48%
SMILES: Cc1ccn(-c2ccc(C(=O)N3CCC4(C=C(C(=O)N5CCN(C)CC5)CC4)Cc4ccccc43)cc2N(C)C)n1 (centres unmarked) [Compound 214]

inhibition at 0.1 µM (V1a; [1]): 64%
SMILES: COC(=O)C1=CC2(CC1)CCN(C(=O)c1ccc(-n3ccc(C(C)=O)c3)c(OC)c1)c1ccccc1C2 (centres unmarked) [Compound 215]

inhibition at 0.1 µM (V1a; [1]): 6%
SMILES: COc1cc(C(=O)N2CCC3(C=C(C(=O)N4CCN(C)CC4)CC3)Cc3ccccc32)ccc1-n1ccc(C(C)=O)c1 (centres unmarked) [Compound 216]

inhibition at 0.1 µM (V1a; [1]): 42%
SMILES: Cc1ccn(-c2ccc(C(=O)N3CCC4(C=C(C(=O)N5CCN(C)CC5)CC4)Cc4ccccc43)cc2)n1 (centres unmarked) [Compound 217]

inhibition at 0.2 µM (V1a; @ 0.2 μM, read-out: Receptor Binding V1a (% Inh. @ concentration in μM)): 48%
SMILES: O=C(O)C1=CC2(CC1)CCN(C(=O)c1ccc(NC(=O)c3cc(F)ccc3F)cc1)c1ccccc1C2 (centres unmarked) [Compound 219]

IC50 (V1a): 0.013 µM
SMILES: CN(C)CCNC(=O)C1=CC2(CC1)CCN(C(=O)c1ccc(NC(=O)c3cc(F)ccc3F)cc1)c1ccccc1C2 (centres unmarked) [Compound 220]

IC50 (V1a): 0.009 µM
SMILES: CN(C)CCCNC(=O)C1=CC2(CC1)CCN(C(=O)c1ccc(NC(=O)c3cc(F)ccc3F)cc1)c1ccccc1C2 (centres unmarked) [Compound 221]
